PMC11233931, “Remodeling tumor‐associated macrophage for anti‐cancer effects by rational design of irreversible inhibition of mitogen‐activated protein kinase‐activated protein kinase 2” (MedComm, 2024)
Like-named read-outs stand apart in the source and are kept apart here.

Tests used:
Assay in all cases: Eurofins kinase selectivity profile against 380 other human recombinant kinases (Table S2)
Assay type in all cases: biochemical
[1] = biological target: T1, 380 human recombinant protein kinases (Homo sapiens, UniProt P11309); details: Pim-1(h), read-out: Inhibition rate
T1 construct: purchased Eurofins (Celle Lévescault)
T1 sequence (P11309 whole entry): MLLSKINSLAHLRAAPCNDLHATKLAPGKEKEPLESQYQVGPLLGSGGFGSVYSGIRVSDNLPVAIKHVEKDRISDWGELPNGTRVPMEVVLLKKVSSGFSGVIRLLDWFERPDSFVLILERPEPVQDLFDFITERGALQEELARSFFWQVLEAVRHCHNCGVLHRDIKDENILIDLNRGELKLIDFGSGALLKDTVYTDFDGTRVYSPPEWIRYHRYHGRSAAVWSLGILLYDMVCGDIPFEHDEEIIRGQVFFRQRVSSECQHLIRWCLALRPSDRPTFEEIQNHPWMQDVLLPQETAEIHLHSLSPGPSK
Outline: (§1)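 To gauge specificity for MK2, the compound is profiled externally at various concentrations on recombinant human kinases, 380 in total.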

[2] = biological target: T2, 380 human recombinant protein kinases (Homo sapiens, UniProt Q13882); details: BRK(h), read-out: Inhibition rate
T2 construct: purchased Eurofins (Celle Lévescault)
T2 sequence (Q13882 whole entry): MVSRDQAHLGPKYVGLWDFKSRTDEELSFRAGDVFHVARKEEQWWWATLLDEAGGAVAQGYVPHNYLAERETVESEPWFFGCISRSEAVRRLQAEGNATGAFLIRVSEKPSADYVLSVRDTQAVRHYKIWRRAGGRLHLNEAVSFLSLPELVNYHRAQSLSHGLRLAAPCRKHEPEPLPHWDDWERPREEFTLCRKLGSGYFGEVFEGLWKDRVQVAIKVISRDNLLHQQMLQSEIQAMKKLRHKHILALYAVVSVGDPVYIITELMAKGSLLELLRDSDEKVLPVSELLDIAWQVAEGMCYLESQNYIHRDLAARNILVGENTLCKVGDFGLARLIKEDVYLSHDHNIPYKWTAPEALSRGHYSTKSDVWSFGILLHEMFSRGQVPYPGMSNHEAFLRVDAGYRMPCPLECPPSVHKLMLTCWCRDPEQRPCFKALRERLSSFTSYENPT
Outline: as §1

[3] = biological target: T3, 380 human recombinant protein kinases (Homo sapiens, UniProt Q9H1R3); details: MYLK2(h), read-out: Inhibition rate
T3 construct: purchased Eurofins (Celle Lévescault)
T3 sequence (Q9H1R3 whole entry): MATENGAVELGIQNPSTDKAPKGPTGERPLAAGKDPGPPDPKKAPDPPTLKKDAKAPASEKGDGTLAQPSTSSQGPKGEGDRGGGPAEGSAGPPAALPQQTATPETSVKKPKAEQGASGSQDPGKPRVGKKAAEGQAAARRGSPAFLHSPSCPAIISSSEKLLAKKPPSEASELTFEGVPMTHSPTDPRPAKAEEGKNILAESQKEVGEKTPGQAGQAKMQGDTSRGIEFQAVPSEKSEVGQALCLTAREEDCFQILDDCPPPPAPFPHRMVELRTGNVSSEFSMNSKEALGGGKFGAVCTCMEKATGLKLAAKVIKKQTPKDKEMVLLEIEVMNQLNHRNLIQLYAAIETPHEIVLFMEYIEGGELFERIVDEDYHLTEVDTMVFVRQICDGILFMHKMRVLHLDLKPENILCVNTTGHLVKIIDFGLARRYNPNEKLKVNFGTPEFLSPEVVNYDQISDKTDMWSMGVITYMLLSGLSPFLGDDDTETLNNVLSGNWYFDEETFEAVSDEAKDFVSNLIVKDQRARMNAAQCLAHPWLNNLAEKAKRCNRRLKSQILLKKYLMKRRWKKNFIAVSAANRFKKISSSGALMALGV
Outline: as §1

[4] = biological target: T4, 380 human recombinant protein kinases (Homo sapiens, UniProt P49759); details: CLK1(h), read-out: Inhibition rate
T4 construct: purchased Eurofins (Celle Lévescault)
T4 sequence (P49759 whole entry): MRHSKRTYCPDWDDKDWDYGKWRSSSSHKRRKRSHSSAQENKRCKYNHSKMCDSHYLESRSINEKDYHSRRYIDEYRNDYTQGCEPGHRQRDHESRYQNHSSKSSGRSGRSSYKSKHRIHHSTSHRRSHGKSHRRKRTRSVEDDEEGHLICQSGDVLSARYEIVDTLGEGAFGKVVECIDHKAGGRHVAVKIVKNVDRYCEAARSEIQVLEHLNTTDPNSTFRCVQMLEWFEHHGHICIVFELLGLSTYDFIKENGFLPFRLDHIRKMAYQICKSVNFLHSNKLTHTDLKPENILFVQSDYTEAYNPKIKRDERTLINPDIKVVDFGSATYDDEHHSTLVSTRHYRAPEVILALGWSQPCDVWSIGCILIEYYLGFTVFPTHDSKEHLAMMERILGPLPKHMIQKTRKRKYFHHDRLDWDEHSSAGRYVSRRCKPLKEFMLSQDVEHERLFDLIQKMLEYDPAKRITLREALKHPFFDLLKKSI
Outline: as §1

[5] = biological target: T5, 380 human recombinant protein kinases (Homo sapiens, UniProt Q9NYV4); details: CDK12/cyclinK(h), read-out: Inhibition rate
T5 construct: purchased Eurofins (Celle Lévescault)
T5 sequence (Q9NYV4 whole entry): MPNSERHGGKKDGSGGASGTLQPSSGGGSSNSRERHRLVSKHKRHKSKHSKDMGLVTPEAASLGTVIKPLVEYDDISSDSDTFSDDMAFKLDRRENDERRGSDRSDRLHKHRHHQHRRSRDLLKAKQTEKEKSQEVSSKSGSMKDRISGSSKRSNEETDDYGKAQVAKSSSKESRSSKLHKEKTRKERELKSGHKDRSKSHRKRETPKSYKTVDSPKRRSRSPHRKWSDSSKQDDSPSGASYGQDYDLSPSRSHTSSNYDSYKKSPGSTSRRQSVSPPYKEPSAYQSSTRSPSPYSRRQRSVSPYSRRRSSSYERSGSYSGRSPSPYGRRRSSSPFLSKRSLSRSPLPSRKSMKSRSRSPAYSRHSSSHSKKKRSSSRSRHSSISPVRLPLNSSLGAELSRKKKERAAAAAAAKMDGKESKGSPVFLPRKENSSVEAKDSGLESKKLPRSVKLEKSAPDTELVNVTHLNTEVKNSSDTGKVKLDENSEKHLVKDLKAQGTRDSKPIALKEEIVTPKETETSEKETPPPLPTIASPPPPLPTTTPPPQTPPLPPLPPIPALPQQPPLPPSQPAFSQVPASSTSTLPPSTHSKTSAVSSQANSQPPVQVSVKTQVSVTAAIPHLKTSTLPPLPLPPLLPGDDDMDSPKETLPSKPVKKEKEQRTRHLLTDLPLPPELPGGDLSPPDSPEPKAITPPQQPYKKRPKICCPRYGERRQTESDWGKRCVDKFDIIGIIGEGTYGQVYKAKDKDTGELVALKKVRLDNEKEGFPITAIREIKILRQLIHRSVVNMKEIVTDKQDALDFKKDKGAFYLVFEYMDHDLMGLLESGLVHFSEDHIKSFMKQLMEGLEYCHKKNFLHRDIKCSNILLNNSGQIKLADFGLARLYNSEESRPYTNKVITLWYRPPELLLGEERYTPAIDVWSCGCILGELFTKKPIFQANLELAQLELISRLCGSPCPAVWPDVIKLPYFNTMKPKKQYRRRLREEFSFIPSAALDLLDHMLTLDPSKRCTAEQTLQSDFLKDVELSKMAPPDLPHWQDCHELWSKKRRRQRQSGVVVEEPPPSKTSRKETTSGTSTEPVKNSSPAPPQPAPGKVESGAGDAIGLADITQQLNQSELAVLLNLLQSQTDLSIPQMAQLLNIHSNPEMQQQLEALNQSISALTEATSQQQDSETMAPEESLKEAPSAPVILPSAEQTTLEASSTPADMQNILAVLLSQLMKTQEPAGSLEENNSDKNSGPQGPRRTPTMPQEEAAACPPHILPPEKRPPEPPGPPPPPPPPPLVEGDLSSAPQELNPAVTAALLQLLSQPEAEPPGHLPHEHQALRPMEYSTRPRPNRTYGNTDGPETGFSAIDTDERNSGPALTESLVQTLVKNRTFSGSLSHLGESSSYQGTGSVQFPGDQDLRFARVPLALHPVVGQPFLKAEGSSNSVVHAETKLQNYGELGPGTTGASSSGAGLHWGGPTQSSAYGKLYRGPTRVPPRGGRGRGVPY
Outline: as §1

[6] = biological target: T6, 380 human recombinant protein kinases (Homo sapiens, UniProt Q9BQI3); details: HRI(h), read-out: Inhibition rate
T6 construct: purchased Eurofins (Celle Lévescault)
T6 sequence (Q9BQI3 whole entry): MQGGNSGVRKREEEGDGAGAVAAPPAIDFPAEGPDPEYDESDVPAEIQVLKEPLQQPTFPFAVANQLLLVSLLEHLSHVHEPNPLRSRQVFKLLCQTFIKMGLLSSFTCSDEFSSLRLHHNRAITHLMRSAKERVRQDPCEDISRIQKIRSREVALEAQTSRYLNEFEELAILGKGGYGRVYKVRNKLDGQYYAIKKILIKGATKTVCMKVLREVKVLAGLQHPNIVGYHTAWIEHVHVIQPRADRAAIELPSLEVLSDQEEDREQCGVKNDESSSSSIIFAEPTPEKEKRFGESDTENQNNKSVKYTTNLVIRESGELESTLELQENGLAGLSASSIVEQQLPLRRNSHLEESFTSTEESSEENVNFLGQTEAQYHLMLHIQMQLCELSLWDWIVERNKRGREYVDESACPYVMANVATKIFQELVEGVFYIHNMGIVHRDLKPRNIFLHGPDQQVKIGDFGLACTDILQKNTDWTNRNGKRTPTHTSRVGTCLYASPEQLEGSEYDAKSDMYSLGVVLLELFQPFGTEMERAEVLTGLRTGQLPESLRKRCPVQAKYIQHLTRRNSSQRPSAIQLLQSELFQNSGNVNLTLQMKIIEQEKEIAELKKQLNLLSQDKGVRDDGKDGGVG
Outline: as §1

[7] = biological target: T7, 380 human recombinant protein kinases (Homo sapiens, UniProt Q9Y4K4); details: MAP4K5(h), read-out: Inhibition rate
T7 construct: purchased Eurofins (Celle Lévescault)
T7 sequence (Q9Y4K4 whole entry): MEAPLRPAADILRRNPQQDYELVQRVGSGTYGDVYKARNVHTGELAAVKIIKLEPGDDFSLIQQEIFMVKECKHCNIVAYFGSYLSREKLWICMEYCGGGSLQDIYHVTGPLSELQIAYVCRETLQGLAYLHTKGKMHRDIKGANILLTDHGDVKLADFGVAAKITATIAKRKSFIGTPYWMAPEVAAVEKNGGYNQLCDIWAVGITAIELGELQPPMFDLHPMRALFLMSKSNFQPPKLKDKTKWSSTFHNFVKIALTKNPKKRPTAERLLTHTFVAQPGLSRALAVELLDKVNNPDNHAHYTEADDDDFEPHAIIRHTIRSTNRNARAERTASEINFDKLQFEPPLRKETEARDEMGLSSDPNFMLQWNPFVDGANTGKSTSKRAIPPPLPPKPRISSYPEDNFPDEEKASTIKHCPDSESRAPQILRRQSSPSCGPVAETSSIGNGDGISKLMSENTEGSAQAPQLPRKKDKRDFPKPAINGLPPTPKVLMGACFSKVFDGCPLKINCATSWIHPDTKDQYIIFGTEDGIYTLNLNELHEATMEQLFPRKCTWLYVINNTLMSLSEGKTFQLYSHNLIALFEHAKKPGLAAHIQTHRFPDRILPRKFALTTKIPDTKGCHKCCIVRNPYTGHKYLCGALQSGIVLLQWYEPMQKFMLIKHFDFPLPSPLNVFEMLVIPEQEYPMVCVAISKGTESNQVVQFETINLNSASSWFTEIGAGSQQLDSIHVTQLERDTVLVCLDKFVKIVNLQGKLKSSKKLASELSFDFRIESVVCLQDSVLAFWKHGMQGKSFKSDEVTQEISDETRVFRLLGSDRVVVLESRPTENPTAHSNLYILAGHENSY
Outline: as §1

[8] = biological target: T8, 380 human recombinant protein kinases (Homo sapiens, UniProt Q9Y3S1); details: WNK2(h), read-out: Inhibition rate (%)
T8 construct: purchased Eurofins (Celle Lévescault)
Outline: as §1

[9] = biological target: T9, 380 human recombinant protein kinases (Homo sapiens, UniProt Q08345); details: DDR1(h), read-out: Inhibition rate
T9 construct: purchased Eurofins (Celle Lévescault)
Outline: as §1

[10] = biological target: T10, 380 human recombinant protein kinases (Homo sapiens, UniProt P00519, T315I); details: Abl(T315I)(h), read-out: Inhibition rate
T10 construct: purchased Eurofins (Celle Lévescault)
Outline: as §1

[11] = biological target: T11, 380 human recombinant protein kinases (Homo sapiens, UniProt P46734); details: MKK3(h), read-out: Inhibition rate
T11 construct: purchased Eurofins (Celle Lévescault)
T11 sequence (P46734 1-347): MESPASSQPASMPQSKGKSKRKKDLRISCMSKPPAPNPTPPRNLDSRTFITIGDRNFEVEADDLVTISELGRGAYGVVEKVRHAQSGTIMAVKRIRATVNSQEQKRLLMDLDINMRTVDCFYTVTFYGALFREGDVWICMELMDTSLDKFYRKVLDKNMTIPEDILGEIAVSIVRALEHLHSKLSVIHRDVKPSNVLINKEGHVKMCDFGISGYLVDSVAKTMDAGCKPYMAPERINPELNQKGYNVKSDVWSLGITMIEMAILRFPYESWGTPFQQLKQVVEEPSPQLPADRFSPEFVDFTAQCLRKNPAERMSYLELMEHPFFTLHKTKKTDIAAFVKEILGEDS
Outline: as §1

[12] = biological target: T12, 380 human recombinant protein kinases (Homo sapiens, UniProt Q5S007); details: LRRK2(h), read-out: Inhibition rate
T12 construct: purchased Eurofins (Celle Lévescault)
Outline: as §1

[13] = biological target: T13, 380 human recombinant protein kinases (Homo sapiens, UniProt Q9HBY8); details: SGK2(h), read-out: Inhibition rate (%)
T13 construct: purchased Eurofins (Celle Lévescault)
T13 sequence (Q9HBY8 1-367): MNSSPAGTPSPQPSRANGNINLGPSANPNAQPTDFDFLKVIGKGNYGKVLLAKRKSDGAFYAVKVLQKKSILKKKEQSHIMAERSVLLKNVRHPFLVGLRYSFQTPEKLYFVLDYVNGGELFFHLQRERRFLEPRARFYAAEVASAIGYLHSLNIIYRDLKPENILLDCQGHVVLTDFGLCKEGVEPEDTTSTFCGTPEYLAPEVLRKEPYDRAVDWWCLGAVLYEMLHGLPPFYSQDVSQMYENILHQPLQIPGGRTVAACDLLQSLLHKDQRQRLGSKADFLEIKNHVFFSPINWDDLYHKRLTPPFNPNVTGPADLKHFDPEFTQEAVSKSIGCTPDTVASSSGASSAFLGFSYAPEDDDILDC
Outline: as §1

[14] = biological target: T14, 380 human recombinant protein kinases (Homo sapiens, UniProt P24941); details: read-out: Inhibition rate; for inhibition at 0.01 µM: 10 nM; for inhibition at 0.1 µM: 100 nM; for inhibition at 1 µM: 1000 nM
T14 construct: purchased Eurofins (Celle Lévescault)
Outline: as §1

With `C=CC(=O)Nc1cc(-c2cc(-c3cc4c([nH]3)CCNC4=O)ccn2)ccc1OC(F)(F)F` [compound 11] the inhibition at 0.01 µM ([1]; 10 nM) was -12%, the inhibition at 0.1 µM ([1]; 100 nM) was 12% and the inhibition at 1 µM ([1]; 1000 nM) was 41%. The inhibition at 0.01 µM ([2]; 10 nM) was 0%, the inhibition at 0.1 µM ([2]; 100 nM) was -5% and the inhibition at 1 µM ([2]; 1000 nM) was -7%. It also gave an inhibition at 0.01 µM ([3]; 10 nM) of -2%, an inhibition at 0.1 µM ([3]; 100 nM) of 6% and an inhibition at 1 µM ([3]; 1000 nM) of 29%. For the same compound, the inhibition at 0.01 µM ([4]; 10 nM) was -7%, the inhibition at 0.1 µM ([4]; 100 nM) was 12% and the inhibition at 1 µM ([4]; 1000 nM) was 70%. It also gave an inhibition at 0.01 µM ([5]; 10 nM) of -1%, an inhibition at 0.1 µM ([5]; 100 nM) of 1% and an inhibition at 1 µM ([5]; 1000 nM) of 5%. The inhibition at 0.01 µM ([6]; 10 nM) was -3%, the inhibition at 0.1 µM ([6]; 100 nM) was 4% and the inhibition at 1 µM ([6]; 1000 nM) was 7%. It also gave an inhibition at 0.01 µM ([7]; 10 nM) of -7%, an inhibition at 0.1 µM ([7]; 100 nM) of -5% and an inhibition at 1 µM ([7]; 1000 nM) of 12%. It also gave an inhibition at 0.01 µM ([8]; 10 nM) of 11%, an inhibition at 0.1 µM ([8]; 100 nM) of 19% and an inhibition at 1 µM ([8]; 1000 nM) of 17%. For the same compound, the inhibition at 0.01 µM ([9]; 10 nM) was 0%, the inhibition at 0.1 µM ([9]; 100 nM) was -1% and the inhibition at 1 µM ([9]; 1000 nM) was -7%. For the same compound, the inhibition at 0.01 µM ([10]; 10 nM) was 6%, the inhibition at 0.1 µM ([10]; 100 nM) was 11% and the inhibition at 1 µM ([10]; 1000 nM) was 31%. The inhibition at 0.01 µM ([11]; 10 nM) was 6%, the inhibition at 0.1 µM ([11]; 100 nM) was -2% and the inhibition at 1 µM ([11]; 1000 nM) was -1%. The inhibition at 0.01 µM ([12]; 10 nM) was -4%, the inhibition at 0.1 µM ([12]; 100 nM) was 17% and the inhibition at 1 µM ([12]; 1000 nM) was 74%. It also gave an inhibition at 0.01 µM ([13]; 10 nM) of -10%, an inhibition at 0.1 µM ([13]; 100 nM) of -7% and an inhibition at 1 µM ([13]; 1000 nM) of 0%. For the same compound, the inhibition at 0.01 µM ([14]; CDK2/cyclinA(h)) was -5%, the inhibition at 0.1 µM ([14]; CDK2/cyclinA(h)) was 0% and the inhibition at 1 µM ([14]; CDK2/cyclinA(h)) was 7%. It also gave an inhibition at 0.01 µM ([14]; CDK2/cyclinE(h)) of -3%, an inhibition at 0.1 µM ([14]; CDK2/cyclinE(h)) of 1% and an inhibition at 1 µM ([14]; CDK2/cyclinE(h)) of -1%.
